According to PMC12051620, “Molecular basis underlying the specificity of an antagonist AA92593 for mammalian melanopsins” (The Journal of Biological Chemistry, 2025):

Test system: jumping spider rhodopsin-1 WT
Test: GsX GloSensor assay with Gsα/q11
Assay type: cell-based
Details: 16.7 μM AA92593, COS-1 cells
Excerpt: We next tested the effect of AA92593 on jumping spider rhodopsin-1, a Gq-coupled visual opsin but not melanopsin (see Figs. 2, S2, and S3) ([41]). Similar to non-mammalian-type and invertebrate melanopsins, jumping spider rhodopsin-1 was not sensitive to AA92593 as assessed using the GsX GloSensor assay (Fig. 7L). […] The introduction of I189^ECL2W/Y207^5.42F impaired the light-dependent cAMP responses even in the absence of AA92593 (Fig. S11). Taken together, the non-melanopsin Gq-coupled opsin cannot be functionally converted to an AA92593-sensitive type by site-directed mutagenesis, in contrast to non-mammalian-type and invertebrate melanopsins. […]
For GloSensor assay, opsins, GloSensor assay sensor (coded by pGlo-22F), and NanoBiT-tagged G proteins were transiently expressed in COS-1 cells (kindly provided from Dr David Farrens, Oregon Health and Science University) using PEI as described previously ([24], [52]). […] For GFP-fluorescence microscopy, a 35-mm cell culture dish (IWAKI) was transfected with 2 μg melanopsin-GFP plasmid and 8 μg PEI in 400 μl Opti-mem and 1.2 ml D-MEM. […]

COc1ccc(S(=O)(=O)N2CCCCC2)cc1C [AA92593]
sensitivity to AA92593: not sensitive
